This is an account of results in US10098887B2, “Antiviral compounds and methods of use thereof” (Trana Discovery, Inc., priority 2010, dated 2018).

In the assay the test system is interaction between Human tRNA^Lys3 and HIV-1 genomic RNA. In words: Biochemical HIV-1 tRNA Inhibition Assay (AlphaScreen). It counts as binding. On the set-up: key: +: showing some activity; ++: intermediate activity; +++: the highest activity. As to conditions: active compounds from high throughput screening, prioritized on IC50. The text has this: The methods for detecting binding of the target RNA to the tRNA or the inhibition of such binding may be performed using any method for such detection. For example, the AlphaScreen® assay (Packard Instrument Company, Meriden, Conn.). AlphaScreen® technology is an “Amplified Luminescent Proximity Homogeneous Assay” method utilizing latex microbeads (250 nm diameter) containing a photosensitizer (donor beads), or chemiluminescent groups and fluorescent acceptor molecules (acceptor beads). Upon illumination with laser light at 680 nm, the photosensitizer in the donor bead converts ambient oxygen to singlet-state oxygen. The excited singlet-state oxygen molecules diffuse approximately 250 nm (one bead diameter) before rapidly decaying. If the acceptor bead is in close proximity to the donor bead (i.e., by virtue of the interaction of the target RNA and tRNA fragment), the singlet-state oxygen molecules reacts with chemiluminescent groups in the acceptor beads, which immediately transfer energy to fluorescent acceptors in the same bead. These fluorescent acceptors shift the emission wavelength to 520-620 nm, resulting in a detectable signal. Antagonists of the interaction of the target RNA with the tRNA fragment will thus inhibit the shift in emission wavelength, whereas agonists of this interaction would enhance it.
In the AlphaScreen configuration (FIG. 3) the assay is done in solution using the same RNA as the immobilization assay. The donor and acceptor beads are bound to their respective RNA's. During the screening the RNAs and test drugs/small molecules are incubated together and formation of the complex is measured using the AlphaScreen detection conditions. Utilization of the AlphaScreen assay may allow for the assay to be run at a lower RNA concentration at room temperature, and increase the stability of the complex.
HIV-1 has evolved to use Human tRNA^Lys3 as a primer for initiation of reverse transcription. Therefore, the interaction between tRNA^Lys3 and viral genomic RNA represents a potential novel target for HIV-1 drug development. Based on this hypothesis, a biochemical assay to identify inhibitors of the interaction between Human tRNA^Lys3 and HIV-1 genomic RNA was developed by TRANA Discovery and transferred to Southern Research Institute for high-throughput screening. This assay was developed as a homogeneous amplified luminescent proximity assay using AlphaScreen™ reagents from PerkinElmer. Based on this assay technology, the AlphaScreen™ luminescent signal serves as a mechanism for detecting the interaction between RNA molecules that represent Human tRNA^Lys3 and HIV-1 genomic RNA. The inhibition of the interaction between these RNA molecules by test compounds is detected as a decrease in the AlphaScreen™ luminescent signal.
A preliminary 15,000 compound screen (NINDS Diversity Set) was previously completed and the results were reported through NIAID contract N01-AI-70042. For the results described herein, a 101,000 compound library that was purchased from ChemBridge for the NIAID TAACF program was used. This library was carefully selected for diversity and minimal similarity to the 100,000 compound NINDS library, which is also planned to be screened using the TRANA Discovery Biochemical HIV-1 tRNA Inhibition Assay. The compounds were screened at a concentration of 12.5 μg/mL (first 3 batches) or 25 μg/mL (fourth and final batch).
Turning to `CC1(C)CC(Nc2cccc3c2C(=O)c2ccccc2C3=O)CC(C)(C)N1` [1-[(2,2,6,6-tetramethyl-4-piperidinyl)amino]anthra-9,10-quinone], the Activity result was “+”.

For the compound `CN(C)C1=C(Cl)C(=O)c2ccccc2C1=O` [2-chloro-3-(dimethylamino)naphthoquinone], the Activity result is “++”.

Take `O=[N+]([O-])c1ccccc1NN=Cc1ccc(O)c(O)c1` [3,4-dihydroxybenzaldehyde (2-nitrophenyl)hydrazone]: the Activity entry is on record as “++”.

For the compound `O=C1C(Nc2cccc(Cl)c2)=C(N2CCOCC2)C(=O)c2ccccc21` [2-[(3-chlorophenyl)amino]-3-(4-morpholinyl)naphthoquinone], the Activity result is given as “++”. Take `CCC(=NNc1ccccc1[N+](=O)[O-])c1ccc(O)cc1` [1-(4-hydroxyphenyl)-1-propanone (2-nitrophenyl)hydrazone]: the Activity entry is “++”.

As for `Cc1cccc(NC2=C(NCCO)C(=O)c3ccccc3C2=O)c1` [2-[(2-hydroxyethyl)amino]-3-[(3-methylphenyl)amino]naphthoquinone], the Activity entry is “+”. Turning to `O=C1NC(=S)N(c2ccc(Cl)cc2)C(=O)C1=Cc1ccco1` [1-(4-chlorophenyl)-5-(2-furylmethylene)-2-thioxodihydro-4,6(1H,5H)-pyrimidinedione], the Activity result is on record as “+”. On to `NN1C(=O)C(=Cc2ccc(O)c(O)c2)SC1=S` [3-amino-5-(3,4-dihydroxybenzylidene)-2-thioxo-1,3-thiazolidin-4-one], for which the Activity result was “+”. For `Cc1ccccc1NC1=C(N)C(=O)c2ccccc2C1=O` [2-amino-3-[(2-methylphenyl)amino]naphthoquinone], the Activity result was “+”. As to `Cc1ccc(N2CCCCC2)c2c1C(=O)c1ccccc1C2=O` [1-methyl-4-(1-piperidinyl)anthra-9,10-quinone], the Activity result is “++”. For `Cc1ccc2c(c1)-c1c(s[s+]c1SCC(=O)c1ccc([N+](=O)[O-])cc1)C(C)(C)N2.[Cl-]` [4,4,8-trimethyl-1-{[2-(4-nitrophenyl)-2-oxoethyl]thio}-4,5-dihydro[1,2]dithiolo[3,4-c]quinolin-2-ium chloride], the Activity entry was “++”.

For the compound `CC(=O)N1c2ccc(C)cc2-c2c(ssc2=S)C1(C)C` [5-acetyl-4,4,8-trimethyl-4,5-dihydro-1H[1,2]dithiolo[3,4-c]quinoline-1-thione], the Activity entry is reported as “+”. With `CC(=NNc1ccccc1[N+](=O)[O-])c1ccco1` [1-(2-furyl)ethanone (2-nitrophenyl)hydrazone], the Activity entry is “+”. For the compound `Nc1c(Cl)cc(N2CCCC2)c2c1C(=O)c1ccccc1C2=O` [1-amino-2-chloro-4-(1-pyrrolidinyl)anthra-9,10-quinone], the Activity entry is “+”. Regarding `O=[N+]([O-])c1ccc(Nc2ccccc2O)c2nonc12` [2-[(7-nitro-2,1,3-benzoxadiazol-4-yl)amino]phenol], the Activity entry is recorded as “++”. On to `O=C1C(Nc2ccc(F)c(F)c2)=C(N2CCOCC2)C(=O)c2ccccc21` [2-[(3,4-difluorophenyl)amino]-3-(4-morpholinyl)naphthoquinone], for which the Activity entry was “+”. The result for `O=C1C(Nc2cccc(F)c2)=C(N2CCCC2)C(=O)c2ccccc21` [2-[(3-fluorophenyl)amino]-3-(1-pyrrolidinyl)naphthoquinone] reads “++”. `Cc1cccc(NC2=C(N3CCOCC3)C(=O)c3ccccc3C2=O)c1` [2-[(3-methylphenyl)amino]-3-(4-morpholinyl)naphthoquinone]: the Activity result is “++”. The value for `Cc1nc(NC(=N)N)nc2c(C)cccc12` [N-(4,8-dimethyl-2-quinazolinyl)guanidine] was “+”; that for `O=C1C(=Cc2ccc(O)c(O)c2)SC(=S)N1c1ccccc1` [5-(3,4-dihydroxybenzylidene)-3-phenyl-2-thioxo-1,3-thiazolidin-4-one] was “+”; that for `CN1C(=O)C(=Cc2c(Cl)ccc([N+](=O)[O-])c2Cl)SC1=S` [5-(2,6-dichloro-3-nitrobenzylidene)-3-methyl-2-thioxo-1,3-thiazolidin-4-one] was “++”. `CCOc1ccc2c(c1)-c1c(ssc1=S)C(C)(C)N2C(C)=O` [5-acetyl-8-ethoxy-4,4-dimethyl-4,5-dihydro-1H-[1,2]dithiolo[3,4-c]quinoline-1-thione]: the Activity result was “+”.

Turning to `Cc1cccc(CNc2ccc3c(c2)OCO3)c1` [1,3-benzodioxol-5-yl(3-methylbenzyl)amine], the Activity result is “+”.

For the compound `CCOC(=O)c1cc(N)ccc1-c1c2ccc(=O)cc-2oc2cc(O)ccc12` [ethyl 5-amino-2-(6-hydroxy-3-oxo-3H-xanthen-9-yl)benzoate], the Activity entry is “+++”. As to `Cc1ccc(Nc2cc(C)c(O)c(C)c2)cc1` [2,6-dimethyl-4-[(4-methylphenyl)amino]phenol], the Activity result is reported as “++”. On to `CC(=O)c1ccc(NC2=C(N3CCCC3)C(=O)c3ccccc3C2=O)cc1` [2-[(4-acetylphenyl)amino]-3-(1-pyrrolidinyl)naphthoquinone], for which the Activity entry is on record as “++”. For `O=C1NC(=S)N(c2ccc(Cl)cc2)C(=O)C1=Cc1ccc([N+](=O)[O-])o1` [1-(4-chlorophenyl)-5-[(5-nitro-2-furyl)methylene]-2-thioxodihydro-4,6(1H,5H)-pyrimidinedione], the Activity entry was “+”. For the compound `CCOC(=O)c1ccc(NC2=C(N3CCOCC3)C(=O)c3ccccc3C2=O)cc1` [ethyl 4-{[3-(4-morpholinyl)-1,4-dioxo-1,4-dihydro-2-naphthalenyl]amino}benzoate], the Activity result was “++”. `O=C1C(Nc2cccc(O)c2)=C(N2CCCCC2)C(=O)c2ccccc21` [2-[(3-hydroxyphenyl)amino]-3-(1-piperidinyl)naphthoquinone]: the Activity result is listed as “+”. The result for `CCOc1ccc2c(c1)-c1c(s[s+]c1SC)C(C)(C)N2.[Cl-]` [8-ethoxy-4,4-dimethyl-1-(methylthio)-4,5-dihydro[1,2]dithiolo[3,4-c]quinolin-2-ium chloride] reads “++”.

In the case of `COc1cccc(NC2=C(N3CCOCC3)C(=O)c3ccccc3C2=O)c1` [2-[(3-methoxyphenyl)amino]-3-(4-morpholinyl)naphthoquinone], the Activity entry is on record as “++”. On to `COc1ccc(N2CCN(c3cc(Cl)ccc3[N+](=O)[O-])CC2)cc1` [1-(5-chloro-2-nitrophenyl)-4-(4-methoxyphenyl)piperazine], for which the Activity entry is given as “+”. The value for `C=CCN1C(=O)C(=Cc2cc(Cl)cc(Cl)c2O)SC1=S` [3-allyl-5-(3,5-dichloro-2-hydroxybenzylidene)-2-thioxo-1,3-thiazolidin-4-one] was “+”; that for `CC(C)NC1=C(Cl)C(=O)c2ccccc2C1=O` [2-chloro-3-(isopropylamino)naphthoquinone] was “+”. `O=C1c2ccccc2C(=O)c2c1cccc2N1CCCC1` [1-(1-pyrrolidinyl)anthra-9,10-quinone]: the Activity entry is listed as “++”.

Turning to `O=C1NC(=O)N(c2cccc3ccccc23)C(=O)C1=Cc1ccco1` [5-(2-furylmethylene)-1-(1-naphthyl)-2,4,6(1H,3H,5H)-pyrimidinetrione], the Activity result is “+”. In the case of `O=C1NC(=S)N(c2cccc(Cl)c2)C(=O)C1=Cc1ccco1` [1-(3-chlorophenyl)-5-(2-furylmethylene)-2-thioxodihydro-4,6(1H,5H)-pyrimidinedione], the Activity result was “+”. `COc1cccc(NC2=C(N3CCCC3)C(=O)c3ccccc3C2=O)c1` [2-[(3-methoxyphenyl)amino]-3-(1-pyrrolidinyl)naphthoquinone]: the Activity entry is reported as “++”. The value for `Cc1cccc(NC2=C(N3CCCC3)C(=O)c3ccccc3C2=O)c1` [2-[(3-methylphenyl)amino]-3-(1-pyrrolidinyl)naphthoquinone] was “++”; that for `CCN1C(=O)C(=Cc2ccc(O)c(O)c2)SC1=S` [5-(3,4-dihydroxybenzylidene)-3-ethyl-2-thioxo-1,3-thiazolidin-4-one] was “+”. The value for `COc1ccc2c(c1)-c1c(ssc1=S)C(C)(C)N2C(C)=O` [5-acetyl-8-methoxy-4,4-dimethyl-4,5-dihydro-1H-[1,2]dithiolo[3,4-c]quinoline-1-thione] was “+”.
